Organism: Rattus norvegicus
Assay: Open TG-GATES - Regimen: Single
Assay type: toxicity, organism-based, Sprague-Dawley
Parameters: regimen Single, gender Male, age 6 weeks
Conditions: in vivo, po, 1 mg/kg, route gavage, dose level Low; for APTT / Bas / Eos / Fbg / Hb / Ht / Lym / MCH / MCHC / MCV / Mono / Neu / PT / Plat / RBC / Ret / WBC: tissue Blood; for KIDNEY_L / KIDNEY_R / KIDNEY_TOTAL: tissue Kidney; for LIVER: tissue Liver; for A/G / ALP / ALT / AST / BUN / CRE / Ca / Cl / DBIL / GLC / IP / K / LDH / Na / PL / RALB / TBIL / TC / TG / TP / gamma-GTP: tissue Plasma

O=NN(CCCl)C(=O)NC1CCCCC1 [LOMUSTINE]
TERMINAL_BW (3 h): 204.1 g | APTT (3 h): 16.5 s | Bas (3 h): 0% | Eos (3 h): 0.2% | Fbg (3 h): 224.2 mg/dL | Hb (3 h): 13.4 g/dL | Ht (3 h): 40.4% | Lym (3 h): 78.8% | MCH (3 h): 21.6 pg | MCHC (3 h): 33.2% | MCV (3 h): 65.2 fL | Mono (3 h): 8.4% | Neu (3 h): 12.2% | PT (3 h): 11.3 s | Plat (3 h): 105.5 x10_4/uL | RBC (3 h): 619 x10_4/ul | Ret (3 h): 8.6% | WBC (3 h): 119.1 x10_2/uL | KIDNEY_L (3 h): 0.9 g | KIDNEY_R (3 h): 0.9 g | KIDNEY_TOTAL (3 h): 1.9 g | LIVER (3 h): 9.6 g | A/G (3 h): 2 | ALP (3 h): 970.8 IU/L | ALT (3 h): 33.4 IU/L | AST (3 h): 60 IU/L | BUN (3 h): 11 mg/dL | CRE (3 h): 0.5 mg/dL | Ca (3 h): 11.4 mg/dL | Cl (3 h): 105.8 meq/L | DBIL (3 h): 0.028 mg/dL | GLC (3 h): 184.2 mg/dL | IP (3 h): 10 mg/dL | K (3 h): 4.8 meq/L | LDH (3 h): 82.2 IU/L | Na (3 h): 139.8 meq/L | PL (3 h): 135.8 mg/dL | RALB (3 h): 3.7 g/dL | TBIL (3 h): 0.3 mg/dL | TC (3 h): 79 mg/dL | TG (3 h): 52.4 mg/dL | TP (3 h): 5.6 g/dL | gamma-GTP (3 h): 1.4 IU/L | TERMINAL_BW (6 h): 203.2 g | APTT (6 h): 16.9 s | Bas (6 h): 0% | Eos (6 h): 0.4% | Fbg (6 h): 227.8 mg/dL | Hb (6 h): 13.4 g/dL | Ht (6 h): 40.2% | Lym (6 h): 82% | MCH (6 h): 21.8 pg | MCHC (6 h): 33.3% | MCV (6 h): 65.6 fL | Mono (6 h): 5.8% | Neu (6 h): 11.8% | PT (6 h): 12.2 s | Plat (6 h): 96.8 x10_4/uL | RBC (6 h): 613.2 x10_4/ul | Ret (6 h): 9% | WBC (6 h): 116.2 x10_2/uL | KIDNEY_L (6 h): 0.9 g | KIDNEY_R (6 h): 0.9 g | KIDNEY_TOTAL (6 h): 1.9 g | LIVER (6 h): 9 g | A/G (6 h): 2 | ALP (6 h): 759.8 IU/L | ALT (6 h): 33.2 IU/L | AST (6 h): 66.6 IU/L | BUN (6 h): 11.2 mg/dL | CRE (6 h): 0.5 mg/dL | Ca (6 h): 10.9 mg/dL | Cl (6 h): 104.6 meq/L | DBIL (6 h): 0.008 mg/dL | GLC (6 h): 188.6 mg/dL | IP (6 h): 10.5 mg/dL | K (6 h): 5.1 meq/L | LDH (6 h): 90.2 IU/L | Na (6 h): 140.8 meq/L | PL (6 h): 142.8 mg/dL | RALB (6 h): 3.7 g/dL | TBIL (6 h): 0.2 mg/dL | TC (6 h): 84 mg/dL | TG (6 h): 41.2 mg/dL | TP (6 h): 5.5 g/dL | gamma-GTP (6 h): 1.4 IU/L | TERMINAL_BW (9 h): 200.6 g | APTT (9 h): 16.5 s | Bas (9 h): 0% | Eos (9 h): 0.6% | Fbg (9 h): 220.2 mg/dL | Hb (9 h): 13.3 g/dL | Ht (9 h): 40.4% | Lym (9 h): 78.6% | MCH (9 h): 21.9 pg | MCHC (9 h): 32.9% | MCV (9 h): 66.4 fL | Mono (9 h): 6.6% | Neu (9 h): 14.2% | PT (9 h): 12.4 s | Plat (9 h): 99.4 x10_4/uL | RBC (9 h): 608 x10_4/ul | Ret (9 h): 9% | WBC (9 h): 86.7 x10_2/uL | KIDNEY_L (9 h): 0.9 g | KIDNEY_R (9 h): 0.9 g | KIDNEY_TOTAL (9 h): 1.8 g | LIVER (9 h): 8.6 g | A/G (9 h): 2.5 | ALP (9 h): 787 IU/L | ALT (9 h): 32 IU/L | AST (9 h): 62.6 IU/L | BUN (9 h): 8.8 mg/dL | CRE (9 h): 0.5 mg/dL | Ca (9 h): 10.6 mg/dL | Cl (9 h): 105.8 meq/L | DBIL (9 h): 0.036 mg/dL | GLC (9 h): 184.6 mg/dL | IP (9 h): 10.2 mg/dL | K (9 h): 4.6 meq/L | LDH (9 h): 76.6 IU/L | Na (9 h): 138.4 meq/L | PL (9 h): 127.4 mg/dL | RALB (9 h): 3.9 g/dL | TBIL (9 h): 0.4 mg/dL | TC (9 h): 72.4 mg/dL | TG (9 h): 39 mg/dL | TP (9 h): 5.5 g/dL | gamma-GTP (9 h): 4.2 IU/L | TERMINAL_BW (24 h): 218.5 g | APTT (24 h): 18.1 s | Bas (24 h): 0% | Eos (24 h): 1% | Fbg (24 h): 201 mg/dL | Hb (24 h): 12.6 g/dL | Ht (24 h): 37.9% | Lym (24 h): 80.8% | MCH (24 h): 21.8 pg | MCHC (24 h): 33.4% | MCV (24 h): 65.3 fL | Mono (24 h): 5.8% | Neu (24 h): 12.6% | PT (24 h): 12.2 s | Plat (24 h): 94.4 x10_4/uL | RBC (24 h): 580.2 x10_4/ul | Ret (24 h): 9% | WBC (24 h): 138.2 x10_2/uL | KIDNEY_L (24 h): 1 g | KIDNEY_R (24 h): 1 g | KIDNEY_TOTAL (24 h): 2 g | LIVER (24 h): 10.7 g | A/G (24 h): 2.2 | ALP (24 h): 961 IU/L | ALT (24 h): 37.6 IU/L | AST (24 h): 68.4 IU/L | BUN (24 h): 15.8 mg/dL | CRE (24 h): 0.5 mg/dL | Ca (24 h): 11.1 mg/dL | Cl (24 h): 104.6 meq/L | DBIL (24 h): 0.018 mg/dL | GLC (24 h): 185.4 mg/dL | IP (24 h): 7.6 mg/dL | K (24 h): 4.8 meq/L | LDH (24 h): 100.6 IU/L | Na (24 h): 138 meq/L | PL (24 h): 144.6 mg/dL | RALB (24 h): 3.9 g/dL | TBIL (24 h): 0.3 mg/dL | TC (24 h): 76 mg/dL | TG (24 h): 98 mg/dL | TP (24 h): 5.7 g/dL | gamma-GTP (24 h): 1.8 IU/L
